According to patent US11434227B2, “Broad spectrum antibacterial activity of novel bisbenzimidazoles targeting topoisomerase IA and the synergistic composition of bisbenzimidazole with efflux pump inhibitors against pathogenic bacteria” (Jawaharlal Nehru University (JNU), priority 2016, dated 2022):
≈ marks a conversion by molar mass, not a printed value.

Columns and labels:
P. aeruginosa (MTCC1688) = test: HN12b in combination with efflux pump inhibitors (CB method, FICI)
Method: (§1) 96-well microtiter plates containing MIC25 concentrations of the Efflux pump inhibitor (CCCP, PAβN) and HN12b antimicrobial drugs alone and in CB combination were used. The MICs of the individual drugs HN12b, PAβN and CCCP (0.25 to 128 μg/ml) and of the combinations were determined using the broth microdilution technique as recommended by the CLSI. Briefly, the broth microdilution plates were inoculated with each test organism to yield the appropriate density (10^5 CFU/ml) in 100 μl Mueller-Hinton broth (MHB) and incubated for 24 h at 37° C. in ambient air. One well with no antibiotic was used as a positive growth control on each plate. Plates were read for visual turbidity, and results were recorded after 24 h of incubation at 37° C. in ambient air by using a magnifying mirror reader, as turbidity in wells indicated growth of the microorganism. The MIC was determined as the well in the microtiter plate with the lowest drug concentration at which there was no visible growth. […] MICAB was defined as the MIC of drug A in the presence of drug B; MICBA was defined as the MIC of drug B in the presence of drug A.
(§2) The fractional inhibitory concentration index (FICI) was calculated for each antibiotic in each combination by using the following formula: FICA+FICB=FICI, where FICA equals the MIC of drug A in combination divided by the MIC of drug A alone and FICB equals the MIC of drug B in combination divided by the MIC of drug B alone. The FICIs were interpreted as follows: FICI of ≤0.5 will correspond to synergy; FICI of >0.5 to ≤1 will correspond to additivity; FICI of >1 to ≤4 will correspond to no interaction (indifference), and FICI of >4 will correspond antagonism.

[1] = system: Acinetobacter baumannii (AB387); test: Susceptibility (MIC50/MIC90), broth microdilution
Method: (§3) MICs were determined by the broth microdilution method according to CLSI methods (Clinical and Laboratory Standards Institute, 2005). Inoculants were incubated at 37° C. on cation adjusted Mueller Hinton (MH) Broth for 18 to 24 h. Compound were dissolved in media to 10 doubling dilutions from 128 to 0.125 μg/mL. All the bacterial strains were grown in 96 well plate with low evaporation lid (Falcon, Becton Dickinson) in presence of derivatives of benzimidazoles at 0.125, 0.25, 0.5, 1, 2, 4, 8, 16, 32, 64, 128, 256 μg/mL concentrations. […] Plates were read by Tecan Micro-plate Reader at 600 nm.

[2] = system: efflux and porin genes (acrAB-tolC, emrAB-tolC, ompC, ompF) in E. coli K12 cells; test: Gene expression analysis by real-time qPCR; format: cell-based, Escherichia coli; settings: E. coli K12 cells treated with ¼ MIC
E. coli Topoisomerase IA = E. coli Topoisomerase IA (Escherichia coli, UniProt P06612); test: Topoisomerase IA cleavage and religation assay; format: biochemical; settings: biochemical assays and computational studies
Method: Compounds at different concentrations were added to DNA cleavage reaction mixtures (20 μl) containing 50 mM TrisHCl, pH 7.5, 2 mM MgCl2 0.2 mM DTT, 0.5 mM EDTA, 30 μg/ml BSA, 25 μg/ml of pHOT1 having specific site for DNA, 40 units of E. coli Topoisomerase IA and ligands was incubated at 37° C. for 30 min. The reactions was then terminated by adding 1% SDS and 150 μg/m Proteinase K, and incubated further for 1 h at 37° C. The DNA samples was electrophoresed in 1% agarose gel in 0.5×TBE. Ethidium bromide at a finial concentration of 0.5 μg/ml was included in the gel to resolve slowly migrating nicked product (cleavable complex) from the supercoiled DNA molecules.

[3] = system: Klebsiella planticola (K1164); test: Susceptibility (MIC50/MIC90), broth microdilution
Method: as §3

Escherichia coli 385 = test: Susceptibility (MIC50/MIC90), broth microdilution
Method: as §3

Enterococcus sp. (2105) = test: Susceptibility (MIC50/MIC90), broth microdilution
Method: as §3

[4] = system: most of the pathogenic bacterial strains; test: MIC of HN12b in combination with efflux pump inhibitor; settings: combination with CCCP and PAβN
Method: Briefly, the broth microdilution plates were inoculated with each test organism to yield the appropriate density (10^5 CFU/ml) in 100 μl Mueller-Hinton broth (MHB) and incubated for 24 h at 37° C. in ambient air. One well with no antibiotic was used as a positive growth control on each plate. Plates were read for visual turbidity, and results were recorded after 24 h of incubation at 37° C. in ambient air by using a magnifying mirror reader, as turbidity in wells indicated growth of the microorganism. The MIC was determined as the well in the microtiter plate with the lowest drug concentration at which there was no visible growth. […] MICAB was defined as the MIC of drug A in the presence of drug B; MICBA was defined as the MIC of drug B in the presence of drug A.

E. coli 81^R = test: Susceptibility (MIC, PAE, MBC), broth microdilution; settings: Escherichia coli
Method: as §3

[5] = system: Staphylococcus sp. (1016); test: Susceptibility (MIC50/MIC90), broth microdilution; settings: Staphylococcus
Method: as §3

E. coli 151^R = test: Susceptibility (MIC, PAE, MBC), broth microdilution; settings: Escherichia coli
Method: as §3

E. coli 451^R = test: as above; settings: Escherichia coli
Method: as §3

E. coli KK45 = test: HN12b in combination with efflux pump inhibitors (CB method, FICI)
Method: as §1, §2

E. coli 72^R = test: Susceptibility (MIC, PAE, MBC), broth microdilution; settings: Escherichia coli
Method: as §3

E. coli K12 mutant ΔemrA = test: Susceptibility of E. coli K12 and mutants (MIC90); settings: Escherichia coli
Method: as §3

[6] = system: Pseudomonas aeruginosa (MTCC 366); test: Susceptibility (MIC50/MIC90), broth microdilution; settings: MTCC366
Method: as §3

Staphylococcus sp. (976) = test: Susceptibility (MIC50/MIC90), broth microdilution
Method: as §3

[7] = system: Pseudomonas aeruginosa (Ps162); test: Susceptibility (MIC50/MIC90), broth microdilution
Method: as §3

E. coli ATCC25922 = test: HN12b in combination with efflux pump inhibitors (CB method, FICI); settings: for FICI / Interpretation: E. coli ATCC25922
Method: as §1, §2

A. baumannii (AB387) = test: as above; settings: for FICI / Interpretation: A. baumannii (AB387)
Method: as §1, §2

[8] = system: Shigella flexineri (MTCC1457); test: Susceptibility (MIC50/MIC90), broth microdilution; format: cell-based
[9] = system: Salmonella typhimurium (MTCC 1251); test: Susceptibility (MIC50/MIC90), broth microdilution; settings: Salmonella enterica
Method: as §3

E. coli ATCC 25922 = test: Neutropenic thigh infection model
Method: The neutropenic mice thigh infection model, fully described by. Craig, was used in this study. Female Balb/c mice (6 mice per dosing group) weighing 20-25 g were rendered neutropenic with 2 intraperitoneal injections of cyclophosphamide (150 mg/kg of body weight 4 days prior to bacterial inoculation and 100 mg/kg 1 day before inoculation) 2 h prior to bacterial inoculation. […] Bacteria were injected into the right thigh of each mouse at time zero. […] Neutropenia was defined as an absolute neutrophil count of 500 polymorphonuclear leukocytes/cm^3 of blood. The bacterial suspension was diluted to a concentration of 10^6 CFU/mL with normal saline. Then, 0.1 mL of the bacterial suspension was injected into each posterior thigh muscle 2 h after the second dose of cyclophosphamide was administered. […] Twenty-four hours after drug treatment was begun, the mice were humanely sacrificed. Right thigh muscles from each mouse were aseptically collected, homogenized and serially diluted 1:10 in phosphate buffer saline, and processed for quantitative cultures.

E. coli K12 mutant ΔompF = test: Susceptibility of E. coli K12 and mutants (MIC90); settings: Escherichia coli
Method: as §3

[10] = system: E. coli K12 mutant ΔTopIA; test: Susceptibility of E. coli K12 and mutants (MIC90); settings: Escherichia coli
Method: as §3

[11] = P. aeruginosa (MTCC1688), HN12b + CCCP

Chain of E. coli Topoisomerase IA (P06612 whole entry): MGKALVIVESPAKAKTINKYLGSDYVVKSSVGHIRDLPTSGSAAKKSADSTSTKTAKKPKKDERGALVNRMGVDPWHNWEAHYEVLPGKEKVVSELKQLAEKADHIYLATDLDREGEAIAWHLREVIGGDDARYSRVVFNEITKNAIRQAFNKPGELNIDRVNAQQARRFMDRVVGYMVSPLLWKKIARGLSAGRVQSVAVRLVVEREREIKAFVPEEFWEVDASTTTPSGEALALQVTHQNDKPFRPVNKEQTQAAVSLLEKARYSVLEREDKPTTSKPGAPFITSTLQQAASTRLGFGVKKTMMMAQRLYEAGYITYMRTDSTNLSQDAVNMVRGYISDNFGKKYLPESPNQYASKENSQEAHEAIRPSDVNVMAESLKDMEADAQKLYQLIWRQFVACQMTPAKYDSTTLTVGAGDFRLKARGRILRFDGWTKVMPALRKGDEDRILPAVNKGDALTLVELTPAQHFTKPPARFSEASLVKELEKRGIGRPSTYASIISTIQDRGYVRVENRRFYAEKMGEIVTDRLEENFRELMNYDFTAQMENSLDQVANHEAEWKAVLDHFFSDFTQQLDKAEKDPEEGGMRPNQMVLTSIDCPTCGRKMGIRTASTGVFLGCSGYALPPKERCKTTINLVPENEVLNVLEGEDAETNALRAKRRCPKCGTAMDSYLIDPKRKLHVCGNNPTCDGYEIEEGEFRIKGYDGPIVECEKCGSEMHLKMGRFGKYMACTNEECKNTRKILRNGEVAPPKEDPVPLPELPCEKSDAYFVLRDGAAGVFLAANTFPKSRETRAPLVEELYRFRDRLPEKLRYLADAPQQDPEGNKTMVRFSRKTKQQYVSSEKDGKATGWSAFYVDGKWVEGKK

CCCN1CCN(c2nc3ccc(-c4nc5ccccc5[nH]4)cc3[nH]2)CC1 [HN12b, 2′-(4-propylpiperazine-1-yl)-1H, 3′H-2,5′-bibenzimidazole] was tested, and the FICI (P. aeruginosa (MTCC1688); [11]) was 0.6, the Interpretation (P. aeruginosa (MTCC1688); [11]) was “Synergy (FICI of ≤0.5 will correspond to synergy)” and the FICI (P. aeruginosa (MTCC1688); P. aeruginosa (MTCC1688), HN12b + PAβN) was 1. For the same compound, the MIC90 (P. aeruginosa (MTCC1688); Pseudomonas aeruginosa, MTCC1688) was greater than 128 µg/mL, the MIC50 [1] was 3.25 µg/mL (≈ 9.02 µM) and the MIC90 [1] was 8 µg/mL (≈ 22.2 µM). For the same compound, the “gene expression of efflux pumps and porins” value [2] was “acrAB-tolC and emr AB-tolC activation and ompC and ompF down-regulation”, the “mechanism of inhibition (Mg^2+ chelation)” value (E. coli Topoisomerase IA) was “chelates Mg^2+ required for, the religation of DNA” and the MIC50 [3] was 34.4 µg/mL (≈ 95.5 µM). For the same compound, the MIC90 [3] was 124 µg/mL (≈ 344 µM), the MIC50 (Escherichia coli 385) was 1.5 µg/mL (≈ 4.16 µM) and the MIC90 (Escherichia coli 385) was 3.3 µg/mL (≈ 9.15 µM). For the same compound, the MIC50 (Enterococcus sp. (2105)) was 28.4 µg/mL (≈ 78.8 µM), the MIC90 (Enterococcus sp. (2105)) was 128 µg/mL (≈ 355 µM) and the “reduction in MIC in combination with efflux pump inhibitor” value [4] was “four to eight fold reduction in MIC”. It also gave an MBC (E. coli 81^R) of 2 µg/mL (≈ 5.55 µM), an MIC50 (E. coli 81^R) of 1 µg/mL (≈ 2.77 µM) and an MIC90 (E. coli 81^R) of 1.6 µg/mL (≈ 4.44 µM). The MIC50 [5] was 0.57 µg/mL (≈ 1.58 µM), the MIC90 [5] was 4.57 µg/mL (≈ 12.7 µM) and the MBC (E. coli 151^R) was 2 µg/mL (≈ 5.55 µM). It also gave an MIC50 (E. coli 151^R) of 1 µg/mL (≈ 2.77 µM), an MIC90 (E. coli 151^R) of 1.7 µg/mL (≈ 4.72 µM) and an MBC (E. coli 451^R) of 2 µg/mL (≈ 5.55 µM). The MIC50 (E. coli 451^R) was 1 µg/mL (≈ 2.77 µM), the MIC90 (E. coli 451^R) was 1.7 µg/mL (≈ 4.72 µM) and the FICI (E. coli KK45; E. coli KK45, HN12b + CCCP) was 0.3. For the same compound, the Interpretation (E. coli KK45; E. coli KK45, HN12b + CCCP) was “Synergy (FICI of ≤0.5 will correspond to synergy)”, the FICI (E. coli KK45; E. coli KK45, HN12b + PAβN) was 0.7 and the MIC90 (E. coli KK45; Escherichia coli, KK45) was 16 µg/mL. The MIC90 (E. coli 72^R) was 3.1 µg/mL (≈ 8.6 µM), the MIC90 (E. coli K12 mutant ΔemrA) was 5.8 µg/mL (≈ 16.1 µM) and the MIC50 [6] was 19 µg/mL (≈ 52.7 µM). For the same compound, the MIC90 [6] was 128 µg/mL (≈ 355 µM), the MIC50 (Staphylococcus sp. (976)) was 0.31 µg/mL (≈ 0.86 µM) and the MIC90 (Staphylococcus sp. (976)) was 15.3 µg/mL (≈ 42.5 µM). For the same compound, the MIC50 [7] was 2.94 µg/mL (≈ 8.16 µM), the MIC90 [7] was 5.94 µg/mL (≈ 16.5 µM) and the FICI (E. coli ATCC25922; HN12b + CCCP) was 0.3. For the same compound, the Interpretation (E. coli ATCC25922; HN12b + CCCP) was “Synergy (FICI of ≤0.5 will correspond to synergy)”, the FICI (E. coli ATCC25922; HN12b + PAβN) was 0.1 and the Interpretation (E. coli ATCC25922; HN12b + PAβN) was “Synergy (FICI of ≤0.5 will correspond to synergy)”. The MIC90 (E. coli ATCC25922; Escherichia coli, ATCC25922) was 14 µg/mL, the FICI (A. baumannii (AB387); HN12b + CCCP) was 0.2 and the Interpretation (A. baumannii (AB387); HN12b + CCCP) was “Synergy (FICI of ≤0.5 will correspond to synergy)”. For the same compound, the FICI (A. baumannii (AB387); HN12b + PAβN) was 0.2, the Interpretation (A. baumannii (AB387); HN12b + PAβN) was “Synergy (FICI of ≤0.5 will correspond to synergy)” and the MIC90 (A. baumannii (AB387); Acinetobacter baumannii) was 8 µg/mL. It also gave an MIC50 [8] of 1.22 µg/mL (≈ 3.38 µM), an MIC90 [8] of 1.22 µg/mL (≈ 3.38 µM) and an MIC50 [9] of less than 0.25 µg/mL. The MIC90 [9] was less than 0.25 µg/mL, the in vivo efficacy (E. coli ATCC 25922; Neutropenia thigh model, E. coli ATCC 25922) was “good in vivo efficacy” and the “Dose at 1 log reduction” value (E. coli ATCC 25922; Neutropenic Thigh, ATCC25922) was 3 mg/kg/bw/day. The “Dose at 3 log reduction” value (E. coli ATCC 25922; Neutropenic Thigh, ATCC25922) was 5 mg/kg/bw/day, the MIC90 (E. coli K12 mutant ΔompF) was 5.4 µg/mL (≈ 15 µM) and the MIC90 [10] was 2.8 µg/mL (≈ 7.77 µM).
